US20040019026A1, “Compounds useful for treating hypertriglyceridemia” (priority 2000, published 2004)
Where “and” joins values, the source holds several entries; their conditions need not be identical. Equal values may be shown once.

What was measured:
[1] = test system: male BKS.Cg-m+/+Leprdb mice; assay: Seminal vesicle weights, androgenic potency (Example 9); assay type: in vivo
Description: (§1) Eight week old male BKS.Cg-m^+/+Lepr^db mice were obtained from Jackson Laboratories. These mice have a point mutation in the leptin receptor gene and produce a truncated receptor with impaired signaling capacity. These animals are severely insulin resistant and manifest an uncontrolled rise in blood sugar, severe depletion of the insulin-producing beta-cells of the pancreatic islets, and death by 10 months of age. The male animals also have very low plasma testosterone levels and as a consequence undeveloped seminal vesicle glands. Administration of androgens to these mice produces an increase in seminal vesicle weights similar to that seen in castrated males. Thus these animals can be used to assess androgenic potency of various compounds.
The mice were housed five per cage on Alphacel bedding with ad libitum access to Purina 5015 chow and acidified water. The mice were housed in the Central Animal Facility (6th floor, Pharmacy building) with twelve hours of alternating light and darkness.
(§2) A week later, the mice were treated subcutaneously (s.c.) with 0.05 mL fluasterone (16α-fluoro-5-androsten-17-one) suspended in an Emulphor-saline vehicle to give either a dose of 5 mg/kg s.c. or 20 mg/kg s.c. or intraperitoneally (i.p.) with 0.05 mL of fluasterone suspended in an Emulphor-saline vehicle to give a dose of 5 mg/kg. The Control mice received the Emulphor-saline vehicle s.c.
(§3) All the mice were anesthetized lightly with isoflurane before treatment with fluasterone to minimize the risk of stressing the mice while giving the s.c. dose. Their food was removed the afternoon before administration with drug and the chow was to the mice the next morning immediately after treatment. All the mice had their chow removed daily and restored just after fluasterone administration. During the week, the mice had access to chow for approximately 6½ hours, while on the weekends, the mice had approximately 4½ hours of access to chow. Mice were treated daily (weekdays and weekends).
Mice were treated daily with fluasterone, for about one month. Then the mice were sacrificed with an overdose of CO2. The seminal vesicles of each mouse were excised, cleaned of adventitia and the coagulating glands, and any liquid was pressed out and then the glands were weighed on a Mettler AE50 balance.

[2] = test system: normal young men and women; assay: Phase I trial, oral fluasterone 14 days: HDL levels (Example 5a); assay type: in vivo, human
Protocol: (a) In a phase I trial in normal young men and women fluasterone was administered in a daily oral dose of 800 mg or 1600 mg for 14 days. The effect of this treatment on HDL levels in males and females is seen in the table hereinbelow.

[3] = test system: human patients; assay: 14-day multiple dose study, 1600 mg daily: plasma triglycerides and fasting plasma glucose (Example 1); assay type: in vivo
Protocol: Twelve patients were treated with 16α-fluoro-5-androstene-17-one.
Smoking and intake of xanthine-containing beverages or food (coffee, tea, cola, chocolate) and alcohol within 24 hours, before and during the stay in the clinical research facilities were not allowed.
The human patients received 1600 mg of 16α-fluoro-5-androstene-17-one daily. Controls were set up so that they received 1600 mg of placebo. The triglyceride concentration in the plasma were measured pretreatment and at the end of the study. There was a significant triglyceride-lowering effect caused by the drug in the 14-day, multiple dose, study.
In 12 patients (excluding 2 placebos) receiving 1600 mg of 16α-fluoro-5-androsten-17-one daily, 4 patients, 3 males and one person, had pretreatment triglyceride levels>200 mg/dL. In this group of 4 patients there was a highly significant reduction in triglyceride values, whereas there was no apparent effect in the 8 patients with non-elevated triglycerides. The decline in one patient was additionally quite striking. […]
In addition, the fasting plasma glucose (FPG) levels were also measured in the patients before and after treatment. In the study, 3 of the 4 patients with elevated triglycerides had pre-treatment FPG levels>6.1 mM. The American Diabetes Association (ADA) has recently classified individuals with FPG of 6.1-6.9 mM as having impaired fasting glucose (IFG). Such individuals have 40% probability of developing ADA criteria for diabetes within 5 years.

[4] = test system: male BKS.Cg-m+/+Leprdb mice; assay: Fasting plasma triglyceride levels in diabetic mice (Example 9); assay type: in vivo
Description: as §1, §2, §3
Plasma triglyceride levels were determined with a Sigma kit (334-UV ). The determination is based on the enzymatic hydrolysis of triglycerides to glycerol and free fatty acids by lipase. Glycerol is subsequently phosphorylated by ATP to produce glycerol-1-phosphate and ADP. ATP is regenerated by a pyruvate kinase-catalyzed reaction between ADP and phosphoenol pyruvate. […] NADH absorbs at 340 nm, thus the decrease in absorbance, measured at this wavelength, is directly proportional to the triglyceride concentration in the sample.
Triglyceride Reagent A (containing ATP, lactate dehydrogenase, lipase, NADH, phosphoenol pyruvate, pyruvate kinase) and Triglyceride Reagent B were reconstituted with 10 mL and 2 mL of distilled water respectively. The Sample Regent is prepared by adding 0.25 mL of Triglyceride Reagent B to 10 mL of Triglyceride Reagent A. Blank, standards (50, 100 and 200 mg/dL) and sample tubes were prepared. One mL of Sample Reagent is added to all tubes. To the Blank tube, 20 μL of distilled water is added. For each Sample tube, 20 μL of plasma is added to the tube. All tubes were incubated at room temperature for 10 minutes. The tubes were read against a Reference containing distilled water. Triglyceride concentration in the samples were calculated by subtracting the absorbance of the Sample from the absorbance of the Blank and using the following formula: […]

[5] = 5 mg/kg, i.p. daily about one month, individual mice
[6] = 5 mg/kg, s.c. daily about one month, individual mice
[7] = 20 mg/kg, s.c. daily about one month, individual mice

C[C@]12CCCCC1=CC[C@@H]1[C@@H]2CC[C@]2(C)C(=O)[C@H](F)C[C@@H]12 [fluasterone, 16α-fluoro-5-androsten-17-one]
Seminal Vesicles [1, 5]: 85.6 mg and 81.8 mg and 71.9 mg and 81.0 mg
s.v./b.w. [1, 5]: 2.1084 and 1.6166 and 1.5630 and 2.0301
Seminal Vesicles ([1]; 5 mg/kg, i.p., Average, p < 0.005): 80.1 p < 0.005 mg
s.v./b.w. ([1]; 5 mg/kg, i.p., Average, p < 0.01): 1.8295
Seminal Vesicles [1, 6]: 40.7 mg and 43.4 mg and 44.5 mg and 42.2 mg and 41.9 mg
s.v./b.w. [1, 6]: 0.8568 and 1.1361 and 0.9570 and 0.9420 and 0.9566
Seminal Vesicles ([1]; 5 mg/kg, s.c., Average): 42.5 mg
s.v./b.w. ([1]; 5 mg/kg, s.c., Average, n.s.): 0.9697 n.s.
Seminal Vesicles [1, 7]: 39.6 mg and 35.8 mg and 35.4 mg and 34.6 mg
s.v./b.w. [1, 7]: 0.8684 and 1.0000 and 0.8872 and 0.8065
Seminal Vesicles ([1]; 20 mg/kg, s.c., Average, n.s.): 36.4 n.s. mg
s.v./b.w. ([1]; 20 mg/kg, s.c., Average, n.s.): 0.8905 n.s.
Androgenicity ([1]; 200 mg/kg p.o. dose, mouse): lack of androgenicity
Effect on seminal vesicle weights ([1]; i.p. route): highly significant increase in seminal vesicle weights
Effect on seminal vesicle weights ([1]; s.c. route at much higher doses): no apparent effect on seminal vesicle weights
HDL Levels ([2]; 800 mg daily oral for 14 days, Females (6), treatment, less than pretreatment, p < 0.015): 46.1 ± 6.2 mg/dL
HDL Levels ([2]; 800 mg daily oral for 14 days, Males (6), treatment): 45.3 ± 15.9 mg/dL
HDL Levels ([2]; 800 mg daily oral, Females (6), pretreatment): 59.2 ± 7.0 mg/dL
HDL Levels ([2]; 800 mg daily oral, Males (6), pretreatment): 50.3 ± 20.1 mg/dL
HDL Levels ([2]; 1600 mg daily oral for 14 days, Females (5), treatment): 43.0 ± 8.1 mg/dL
HDL Levels ([2]; 1600 mg daily oral for 14 days, Males (7), treatment): 40.2 ± 7.4 mg/dL
HDL Levels ([2]; 1600 mg daily oral, Females (5), pretreatment): 45.3 ± 10.1 mg/dL
HDL Levels ([2]; 1600 mg daily oral, Males (7), pretreatment): 46.1 ± 6.6 mg/dL
Plasma triglyceride Conc. ([3]; Elevated Triglyceride Group, Female (1), pretreatment): 540 ± 42 (n = 2) mg/dL
Plasma triglyceride Conc. ([3]; Elevated Triglyceride Group, Female (1), treatment 1600 mg daily, 14-day study): 118 ± 19 (n = 3) mg/dL
Plasma triglyceride Conc. ([3]; Elevated Triglyceride Group, Female and Male (4), pretreatment): 385 ± 116 (n = 8) mg/dL
Plasma triglyceride Conc. ([3]; Elevated Triglyceride Group, Female and Male (4), treatment 1600 mg daily, 14-day study): 154 ± 57 (n = 11) mg/dL
Plasma triglyceride Conc. ([3]; Elevated Triglyceride Group, Male (3), pretreatment): 333 ± 75 (n = 6) mg/dL
Plasma triglyceride Conc. ([3]; Elevated Triglyceride Group, Male (3), treatment 1600 mg daily, 14-day study): 168 ± 61 (n = 8) mg/dL
Plasma triglyceride Conc. ([3]; Normal Triglyceride Group (8 patients), pretreatment): 106 ± 34 (n = 16) mg/dL
Plasma triglyceride Conc. ([3]; Normal Triglyceride Group (8 patients), treatment 1600 mg daily, 14-day study): 128 ± 77 (n = 23) mg/dL
FPG levels of individuals with IFG ([3]; pretreatment): 6.28 ± 0.33 (6) mM
FPG levels of individuals with IFG ([3]; treatment 1600 mg daily, p < 0.02): 5.63 ± 0.45 (8) (p < 0.02) mM
Fasting Plasma Triglyceride Levels ([4]; 5 mg/kg i.p., treatment day 0): 136 ± 38.4 mg/dL
Fasting Plasma Triglyceride Levels ([4]; 5 mg/kg i.p., treatment day 7, less than s.c. Control, p < 0.02): 91.1 ± 14.5^2 mg/dL
Fasting Plasma Triglyceride Levels ([4]; 5 mg/kg i.p., treatment day 14, less than s.c. Control, p < 0.01): 115 ± 14.2^4 mg/dL
Fasting Plasma Triglyceride Levels ([4]; 5 mg/kg i.p., treatment day 17): 116 ± 17.0 mg/dL
Fasting Plasma Triglyceride Levels ([4]; 5 mg/kg s.c., treatment day 0): 126 ± 20.9 mg/dL
Fasting Plasma Triglyceride Levels ([4]; 5 mg/kg s.c., treatment day 7, less than s.c. Control, p < 0.02): 115 ± 33.3^2 mg/dL
Fasting Plasma Triglyceride Levels ([4]; 5 mg/kg s.c., treatment day 14, less than s.c. Control, p < 0.01): 115 ± 15.7^4 mg/dL
Fasting Plasma Triglyceride Levels ([4]; 5 mg/kg s.c., treatment day 17): 115 ± 13.7 mg/dL
Fasting Plasma Triglyceride Levels ([4]; 200 mg/kg oral, treatment day 0): 126 ± 18.6 mg/dL
Fasting Plasma Triglyceride Levels ([4]; 200 mg/kg oral, treatment day 7, less than oral Control, p < 0.01): 107 ± 38.9^1 mg/dL
Fasting Plasma Triglyceride Levels ([4]; 200 mg/kg oral, treatment day 14, less than oral Control, p < 0.001): 95.7 ± 15.6^3 mg/dL
Fasting Plasma Triglyceride Levels ([4]; 200 mg/kg oral, treatment day 17, less than oral Control, p < 0.001): 100 ± 13.1^3 mg/dL
